Results on 22 compounds are retold here after ChEMBL document CHEMBL4414590, “Discovery of SIAIS178 as an Effective BCR-ABL Degrader by Recruiting Von Hippel-Lindau (VHL) E3 Ubiquitin Ligase” (J Med Chem, 2019).

Calls of active or inactive are those of the source. No cut-off for these calls is given here.

In data set [1] the test system is K562. Put plainly: Growth inhibition of human K562 cells incubated for 2 days by CCK8 assay. The class given is functional, cell-based. As to conditions: K562, 48 h.
Data set [2] deals with K562. Put plainly: Antitumor activity against luciferse expressing human K562 cells xenografted in NOD/SCID mouse assessed as attenuation of tumor progression at 5 to 15 mg/kg, ip QD for 12 days by serial volumetric analysis. Format: functional, organism-based.
Data set [3] has as its target T1, von Hippel-Lindau disease tumor suppressor/Tyrosine-protein kinase ABL1/Breakpoint cluster region protein (Homo sapiens, UniProt P00519+P11274+P40337). The experiment in a line: Protac activity against VHL/BCR-ABL in NOD/SCID mouse xenografted with luciferse expressing human K562 cells assessed as induction of BCR-ABL degradation at 15 mg/kg, ip QD for 4 days by Western blotting analysis. The class given is functional, organism-based. On the technique in general: Xenograft models place foreign cells or tissue in a host animal.
Target sequence in this assay (P00519 whole entry, looked up): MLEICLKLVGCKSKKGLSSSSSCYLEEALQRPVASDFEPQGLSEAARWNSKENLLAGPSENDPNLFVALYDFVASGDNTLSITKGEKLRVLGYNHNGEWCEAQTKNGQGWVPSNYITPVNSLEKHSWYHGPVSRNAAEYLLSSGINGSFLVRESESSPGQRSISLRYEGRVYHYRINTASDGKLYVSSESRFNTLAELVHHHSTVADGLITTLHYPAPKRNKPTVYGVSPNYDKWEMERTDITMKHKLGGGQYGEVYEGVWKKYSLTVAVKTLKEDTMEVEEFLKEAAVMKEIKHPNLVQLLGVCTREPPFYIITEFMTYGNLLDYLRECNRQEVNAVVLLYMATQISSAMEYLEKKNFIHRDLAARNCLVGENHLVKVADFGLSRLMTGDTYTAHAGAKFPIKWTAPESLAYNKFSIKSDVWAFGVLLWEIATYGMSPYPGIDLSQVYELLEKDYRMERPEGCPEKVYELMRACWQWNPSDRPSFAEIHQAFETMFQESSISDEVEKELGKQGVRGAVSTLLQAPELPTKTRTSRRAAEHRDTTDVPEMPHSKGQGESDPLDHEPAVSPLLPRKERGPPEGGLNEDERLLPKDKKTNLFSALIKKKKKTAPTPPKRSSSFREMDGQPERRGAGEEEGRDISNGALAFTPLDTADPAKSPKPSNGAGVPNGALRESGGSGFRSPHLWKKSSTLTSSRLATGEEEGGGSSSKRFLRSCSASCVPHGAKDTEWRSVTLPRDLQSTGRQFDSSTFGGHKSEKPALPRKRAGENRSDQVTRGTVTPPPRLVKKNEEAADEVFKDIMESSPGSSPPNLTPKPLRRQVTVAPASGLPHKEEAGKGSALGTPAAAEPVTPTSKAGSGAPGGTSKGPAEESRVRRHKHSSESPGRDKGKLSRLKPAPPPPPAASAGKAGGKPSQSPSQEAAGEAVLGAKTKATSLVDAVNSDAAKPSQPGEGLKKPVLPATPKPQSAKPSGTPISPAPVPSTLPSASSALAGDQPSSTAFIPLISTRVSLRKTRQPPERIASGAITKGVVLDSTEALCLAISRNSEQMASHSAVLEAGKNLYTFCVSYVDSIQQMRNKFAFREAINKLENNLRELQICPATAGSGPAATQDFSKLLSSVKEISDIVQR
Target sequence in this assay (P11274 whole entry, looked up): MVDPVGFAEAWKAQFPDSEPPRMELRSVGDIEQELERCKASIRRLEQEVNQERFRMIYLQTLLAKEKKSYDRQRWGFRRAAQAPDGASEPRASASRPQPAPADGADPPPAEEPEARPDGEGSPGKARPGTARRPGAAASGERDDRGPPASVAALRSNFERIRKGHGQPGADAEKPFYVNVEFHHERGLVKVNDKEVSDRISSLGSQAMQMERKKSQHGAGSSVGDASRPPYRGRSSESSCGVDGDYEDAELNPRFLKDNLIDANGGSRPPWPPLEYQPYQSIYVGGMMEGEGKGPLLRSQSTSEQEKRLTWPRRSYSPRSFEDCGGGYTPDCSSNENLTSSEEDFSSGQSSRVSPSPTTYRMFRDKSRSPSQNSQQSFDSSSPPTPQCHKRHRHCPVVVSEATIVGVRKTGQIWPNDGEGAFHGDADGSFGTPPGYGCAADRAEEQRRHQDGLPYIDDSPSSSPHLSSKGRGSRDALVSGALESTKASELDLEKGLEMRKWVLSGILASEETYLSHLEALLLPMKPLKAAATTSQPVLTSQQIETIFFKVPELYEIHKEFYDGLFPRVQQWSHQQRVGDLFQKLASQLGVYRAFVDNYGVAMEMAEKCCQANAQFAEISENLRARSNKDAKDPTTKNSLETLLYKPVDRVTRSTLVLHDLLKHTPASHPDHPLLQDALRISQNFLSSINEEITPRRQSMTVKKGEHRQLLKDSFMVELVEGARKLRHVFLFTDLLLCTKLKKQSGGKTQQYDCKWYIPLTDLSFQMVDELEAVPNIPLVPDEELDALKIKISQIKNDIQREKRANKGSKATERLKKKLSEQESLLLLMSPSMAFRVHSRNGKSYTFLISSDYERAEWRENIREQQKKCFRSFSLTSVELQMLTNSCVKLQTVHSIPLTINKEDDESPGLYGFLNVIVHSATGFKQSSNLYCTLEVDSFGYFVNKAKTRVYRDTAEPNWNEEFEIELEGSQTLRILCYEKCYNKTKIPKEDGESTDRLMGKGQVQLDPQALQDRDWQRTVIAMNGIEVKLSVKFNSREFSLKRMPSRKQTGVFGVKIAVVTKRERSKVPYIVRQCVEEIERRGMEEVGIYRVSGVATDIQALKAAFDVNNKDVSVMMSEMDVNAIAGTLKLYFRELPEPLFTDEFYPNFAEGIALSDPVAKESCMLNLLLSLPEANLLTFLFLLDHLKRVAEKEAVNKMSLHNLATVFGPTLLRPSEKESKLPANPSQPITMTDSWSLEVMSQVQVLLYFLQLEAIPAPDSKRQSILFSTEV
Target sequence in this assay (P40337 whole entry, looked up): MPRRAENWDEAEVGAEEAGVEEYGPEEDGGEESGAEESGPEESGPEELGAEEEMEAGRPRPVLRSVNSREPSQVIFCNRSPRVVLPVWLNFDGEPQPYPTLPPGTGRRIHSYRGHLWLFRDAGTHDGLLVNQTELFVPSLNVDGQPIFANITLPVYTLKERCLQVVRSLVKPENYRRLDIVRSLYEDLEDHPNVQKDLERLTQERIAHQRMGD

Data set [4] deals with K562. The experiment in a line: Growth inhibition of human K562 cells assessed as reduction in cell density at 20 times IC50 incubated for 12 hrs followed by drug wash-out and incubation in drug-free medium up to 144 hrs by CCK8 assay. Format: functional, cell-based. In general terms: Tetrazolium assays rely on reduction of a dye to a coloured formazan, in cell work by metabolically active cells.

Data set [5] concerns the target T1, von Hippel-Lindau disease tumor suppressor/Tyrosine-protein kinase ABL1/Breakpoint cluster region protein. The experiment in a line: Protac activity against VHL/BCR-ABL in human K562 cells assessed as induction of BCR-ABL degradation at 1 to 100 nM by Western blot analysis. The class given is cell-based. (In general: In western blotting, separated proteins are transferred to a membrane and probed.)
Target sequence in this assay (P00519 whole entry, looked up): as the sequence (P00519 whole entry, looked up) above
Target sequence in this assay (P11274 whole entry, looked up): as the sequence (P11274 whole entry, looked up) above
Target sequence in this assay (P40337 whole entry, looked up): as the sequence (P40337 whole entry, looked up) above

Data set [6] deals with K562. The experiment in a line: Induction of cell death in human K562 cells assessed as reduction in cell viability at 20 times IC50 incubated for 12 hrs followed by drug wash-out and incubation in drug-free medium up to 144 hrs by CCK8 assay. The class given is functional, cell-based.
The target of data set [7] is T1, von Hippel-Lindau disease tumor suppressor/Tyrosine-protein kinase ABL1/Breakpoint cluster region protein. The experiment in a line: Induction of ternary complex formation between VHL and BCR-ABL (unknown origin) expressed in HEK293 cells expressing N-terminal BCR-ABL LgBit fusion protein and N-terminal SmBit-VHL fusion protein at 1 uM incubated for 1 hr by NanoBit technology based luciferase complementation assay. Format: cell-based.
Target sequence in this assay (P00519 whole entry, looked up): as the sequence (P00519 whole entry, looked up) above
Target sequence in this assay (P11274 whole entry, looked up): as the sequence (P11274 whole entry, looked up) above
Target sequence in this assay (P40337 whole entry, looked up): as the sequence (P40337 whole entry, looked up) above

The target in data set [8] is T2, Bcr/Abl fusion protein (Homo sapiens) (UniProt P00519+P11274). The experiment in a line: Inhibition of BCR-ABL in human K562 cells assessed as reduction in STAT5 phosphorylation at 1 to 100 nM by Western blot analysis. The class given is cell-based.
T2 sequence (P00519 whole entry, looked up, the tested form may be a part): as the sequence (P00519 whole entry, looked up) above
T2 sequence (P11274 whole entry, looked up, the tested form may be a part): as the sequence (P11274 whole entry, looked up) above
In data set [9] the test system is Mus musculus. The experiment in a line: Inhibition of BCR-ABL phosphorylation in NOD/SCID mouse xenografted with luciferse expressing human K562 cells at 5 to 15 mg/kg, ip QD for 4 days by Western blotting analysis. The class given is functional, organism-based.
The target of data set [10] is T2, Bcr/Abl fusion protein (Homo sapiens). Put plainly: Inhibition of BCR-ABL phosphorylation in human K562 cells at 1 to 100 nM by Western blot analysis. The class given is cell-based.
In data set [11] the target is Tyrosine-protein kinase ABL1 (Homo sapiens) (UniProt P00519). Put plainly: Binding affinity to human non-phosphorylated ABL1 (S229 to K512 residues) expressed in mammalian expression system assessed as residual binding level at 10 uM by Kinomescan method relative to control.
Chain of Tyrosine-protein kinase ABL1 (Homo sapiens) (P00519 whole entry, the tested form may be a part): as the sequence (P00519 whole entry, looked up) above
The target in data set [12] is T1, von Hippel-Lindau disease tumor suppressor/Tyrosine-protein kinase ABL1/Breakpoint cluster region protein. The experiment in a line: Induction of ternary complex formation between VHL and BCR-ABL (unknown origin) expressed in HEK293 cells expressing N-terminal BCR-ABL LgBit fusion protein and N-terminal SmBit-VHL fusion protein incubated for 1 hr by NanoBit technology based luciferase complementation assay. Format: cell-based.
Target sequence in this assay (P00519 whole entry, looked up): as above
Target sequence in this assay (P11274 whole entry, looked up): as the sequence (P11274 whole entry, looked up) above
Target sequence in this assay (P40337 whole entry, looked up): as the sequence (P40337 whole entry, looked up) above

The target in data set [13] is Tyrosine-protein kinase ABL1 (Homo sapiens) (UniProt P00519). Put plainly: Binding affinity to human phosphorylated ABL1 (S229 to K512 residues) expressed in mammalian expression system assessed as residual binding level at 10 uM by Kinomescan method relative to control.
A short description of data set [14]: Permeability in human Caco2 cells at 10 uM incubated for 120 mins by LC-MS/MS analysis. As to conditions: caco-2, 2 h. Format: ADME, cell-based.
For data set [15], the target named is T1, von Hippel-Lindau disease tumor suppressor/Tyrosine-protein kinase ABL1/Breakpoint cluster region protein. Put plainly: Protac activity against VHL/BCR-ABL in human K562 cells assessed as induction of BCR-ABL degradation by Western blot analysis. The class given is cell-based.
Target sequence in this assay (P00519 whole entry): as the sequence (P00519 whole entry, looked up) above
Target sequence in this assay (P11274 whole entry): as the sequence (P11274 whole entry, looked up) above
Target sequence in this assay (P40337 whole entry): as the sequence (P40337 whole entry, looked up) above
The test system of data set [16] is K562. Put plainly: Antitumor activity against luciferse expressing human K562 cells xenografted in NOD/SCID mouse assessed as attenuation of tumor progression at 5 mg/kg, ip QD for 12 days by serial volumetric analysis. Format: functional, organism-based.

For the compound `Cc1nc(Nc2ncc(C(=O)Nc3c(C)cccc3Cl)s2)cc(N2CCN(CCCCCCOCCOCCOCCCCCC(=O)N[C@H](C(=O)N3C[C@H](O)C[C@H]3C(=O)NCc3ccc(-c4scnc4C)cc3)C(C)(C)C)CC2)n1`, the IC50 (commonly the concentration that gives 50% inhibition) in [1] was determined as 3.4 nM.

For `Cc1nc(Nc2ncc(C(=O)Nc3c(C)cccc3Cl)s2)cc(N2CCN(C(=O)CCCCCOCCOCCOCCCCCC(=O)N[C@H](C(=O)N3C[C@H](O)C[C@H]3C(=O)NCc3ccc(-c4scnc4C)cc3)C(C)(C)C)CC2)n1`, in [1], 14.9 nM corresponded to half-maximal inhibition (IC50).

As to `Cc1nc(Nc2ncc(C(=O)Nc3c(C)cccc3Cl)s2)cc(N2CCN(C(=O)CCCCCCC(=O)N[C@H](C(=O)N3C[C@@H](O)C[C@H]3C(=O)NCc3ccc(-c4scnc4C)cc3)C(C)(C)C)CC2)n1`, the outcome in data set [2], in data set [3], in data set [5], in data set [6] and in data set [7] was inactive. Further, the “growth inhibition (GI)” value in data set [4] is “inactive”. Besides, the inhibition result in data set [8], in data set [9] and in [10] was “Active” throughout. Consider `Cc1nc(Nc2ncc(C(=O)Nc3c(C)cccc3Cl)s2)cc(N2CCN(C(=O)COCCOCCOCC(=O)N[C@H](C(=O)N3C[C@H](O)C[C@H]3C(=O)NCc3ccc(-c4scnc4C)cc3)C(C)(C)C)CC2)n1`, for which the outcome in [11], in data set [12] and in data set [13] was Active. In data set [14], the permeability entry was “Permeable”. On to `Cc1nc(Nc2ncc(C(=O)Nc3c(C)cccc3Cl)s2)cc(N2CCN(C(=O)CCCCCCCCCCCCCCC(=O)N[C@H](C(=O)N3C[C@H](O)C[C@H]3C(=O)NCc3ccc(-c4scnc4C)cc3)C(C)(C)C)CC2)n1`, for which, in data set [1], the IC50 was found to be 32.3 nM. In turn, `Cc1nc(Nc2ncc(C(=O)Nc3c(C)cccc3Cl)s2)cc(N2CCN(C(=O)CCCCCCCCC(=O)N[C@H](C(=O)N3C[C@H](O)C[C@H]3C(=O)NCc3ccc(-c4scnc4C)cc3)C(C)(C)C)CC2)n1` returned a concentration for half-maximal inhibition (IC50) in data set [1] of 14.3 nM. In addition, the DC50 (as a rule, the concentration at which degradation of the target reaches its halfway point) in data set [15] came to 10.1 nM. Take `Cc1nc(Nc2ncc(C(=O)Nc3c(C)cccc3Cl)s2)cc(N2CCN(C(=O)CCOCCOCCOCCOCCC(=O)N[C@H](C(=O)N3C[C@H](O)C[C@H]3C(=O)NCc3ccc(-c4scnc4C)cc3)C(C)(C)C)CC2)n1`: the IC50 in data set [1] is 2160 nM. `Cc1nc(Nc2ncc(C(=O)Nc3c(C)cccc3Cl)s2)cc(N2CCN(C(=O)CCCC(=O)N[C@H](C(=O)N3C[C@H](O)C[C@H]3C(=O)NCc3ccc(-c4scnc4C)cc3)C(C)(C)C)CC2)n1` had an IC50 in data set [1] of 87 nM. Also, the DC50 in [15] worked out at 40.2 nM. Compound `Cc1nc(Nc2ncc(C(=O)Nc3c(C)cccc3Cl)s2)cc(N2CCN(C(=O)CCCc3cn(CCCC(=O)N[C@H](C(=O)N4C[C@H](O)C[C@H]4C(=O)NCc4ccc(-c5scnc5C)cc4)C(C)(C)C)nn3)CC2)n1` displayed an IC50 in data set [1] of 12 nM.

In the case of `Cc1nc(Nc2ncc(C(=O)Nc3c(C)cccc3Cl)s2)cc(N2CCN(CCO)CC2)n1` [DASATINIB], the “growth inhibition (GI)” value in data set [4] was “inactive”. Also, the result in data set [6] was inactive. Moreover, the result in data set [16] was Active. In addition, 0.9 nM corresponded to half-maximal inhibition in [1] (IC50).

Compound `Cc1nc(Nc2ncc(C(=O)Nc3c(C)cccc3Cl)s2)cc(N2CCN(C(=O)CNC(=O)CCCC(=O)N[C@H](C(=O)N3C[C@H](O)C[C@H]3C(=O)NCc3ccc(-c4scnc4C)cc3)C(C)(C)C)CC2)n1` had an IC50 in data set [1] of 68.2 nM.

The compound `Cc1nc(Nc2ncc(C(=O)Nc3c(C)cccc3Cl)s2)cc(N2CCN(C(=O)CCC(=O)N[C@H](C(=O)N3C[C@H](O)C[C@H]3C(=O)NCc3ccc(-c4scnc4C)cc3)C(C)(C)C)CC2)n1` gave an IC50 in [1] of 78 nM. Also, the DC50 in data set [15] worked out at 611 nM. For the compound `Cc1nc(Nc2ncc(C(=O)Nc3c(C)cccc3Cl)s2)cc(N2CCN(C(=O)COCCOCC(=O)N[C@H](C(=O)N3C[C@H](O)C[C@H]3C(=O)NCc3ccc(-c4scnc4C)cc3)C(C)(C)C)CC2)n1`, the IC50 in data set [1] worked out at 2240 nM. The compound `Cc1nc(Nc2ncc(C(=O)Nc3c(C)cccc3Cl)s2)cc(N2CCN(C(=O)CCCCCCCC(=O)N[C@H](C(=O)N3C[C@H](O)C[C@H]3C(=O)NCc3ccc(-c4scnc4C)cc3)C(C)(C)C)CC2)n1` registered an IC50 in data set [1] of 22.4 nM. In addition, the DC50 in data set [15] is 37.9 nM. For `Cc1nc(Nc2ncc(C(=O)Nc3c(C)cccc3Cl)s2)cc(N2CCN(C(=O)CCCCCC(=O)N[C@H](C(=O)N3C[C@H](O)C[C@H]3C(=O)NCc3ccc(-c4scnc4C)cc3)C(C)(C)C)CC2)n1`, in that order: 37.6 nM and 17.9 nM. `Cc1nc(Nc2ncc(C(=O)Nc3c(C)cccc3Cl)s2)cc(N2CCN(CCCCCNC(=O)CCCCCCCCC(=O)N[C@H](C(=O)N3C[C@H](O)C[C@H]3C(=O)NCc3ccc(-c4scnc4C)cc3)C(C)(C)C)CC2)n1` came in with an IC50 in [1] of 6.9 nM. That is a single-digit nanomolar value. With `Cc1nc(Nc2ncc(C(=O)Nc3c(C)cccc3Cl)s2)cc(N2CCN(C(=O)CCOCCOCCC(=O)N[C@H](C(=O)N3C[C@H](O)C[C@H]3C(=O)NCc3ccc(-c4scnc4C)cc3)C(C)(C)C)CC2)n1`, the midpoint of inhibition in data set [1], the IC50, lay at 670 nM. The same measure, in the same setting: the same measure for `Cc1nc(Nc2ncc(C(=O)Nc3c(C)cccc3Cl)s2)cc(N2CCN(C(=O)CCCCNC(=O)CCCCCCCCC(=O)N[C@H](C(=O)N3C[C@H](O)C[C@H]3C(=O)NCc3ccc(-c4scnc4C)cc3)C(C)(C)C)CC2)n1`: 72 nM.

Consider `Cc1nc(Nc2ncc(C(=O)Nc3c(C)cccc3Cl)s2)cc(N2CCN(C(=O)CCCCC(=O)N[C@H](C(=O)N3C[C@H](O)C[C@H]3C(=O)NCc3ccc(-c4scnc4C)cc3)C(C)(C)C)CC2)n1`, for which the IC50 in data set [1] stood at 89 nM. The DC50 in data set [15] stood at 34.7 nM. The compound `Cc1nc(Nc2ncc(C(=O)Nc3c(C)cccc3Cl)s2)cc(N2CCN(C(=O)CCCCCCCCCCCCC(=O)N[C@H](C(=O)N3C[C@H](O)C[C@H]3C(=O)NCc3ccc(-c4scnc4C)cc3)C(C)(C)C)CC2)n1` came in with a half-maximal inhibitory concentration (IC50) in data set [1] of 14.4 nM. The same measure, in the same setting: the value for `Cc1nc(Nc2ncc(C(=O)Nc3c(C)cccc3Cl)s2)cc(N2CCN(C(=O)CCOCCOCCOCCOCCOCCC(=O)N[C@H](C(=O)N3C[C@H](O)C[C@H]3C(=O)NCc3ccc(-c4scnc4C)cc3)C(C)(C)C)CC2)n1` was 1610 nM; that for `Cc1nc(Nc2ncc(C(=O)Nc3c(C)cccc3Cl)s2)cc(N2CCN(C(=O)CCOCCOCCOCCC(=O)N[C@H](C(=O)N3C[C@H](O)C[C@H]3C(=O)NCc3ccc(-c4scnc4C)cc3)C(C)(C)C)CC2)n1` was 3430 nM.
